{"source": "patent US20170216426A1", "about": "“COMPOSITIONS AND METHODS FOR TRANSIENT IMMUNE RESPONSE MODULATION DURING VACCINATION” (priority 2014, published 2017)", "molecules": {"B1": {"name": "CD40L: CD40 ligand conjugated to liposomes (protein, UniProt P29965 113-261, looked up)", "CD40 ligand, soluble form": "MQKGDQNPQIAAHVISEASSKTTSVLQWAEKGYYTMSNNLVTLENGKQLTVKRQGLYYIYAQVTFCSNREASSQAPFIASLCLKSPGRFERILLRAANTHSSAKPCGQQSIHLGGVFELQPGASVFVNVTDPSQVSHGTGFTSFGLLKL", "modifications": "conjugated to liposomes"}}, "key": {"immature/T1 B cells": {"system": "immature/T1 B cells", "experiment": "AID mRNA expression in cultured immature/T1 B cells (quantitative RT-PCR)", "format": "cell-based, mice", "procedure": "Twenty-four hours after culture, B cells were harvested in TRIzol-LS reagent for AID mRNA quantification.\nExpression of AID mRNA was determined by a quantitative RT-PCR^1. Briefly, sorted immature/T1 and mature follicular B cells were lysed in TRIzol LS before and after cultures. Total RNA was prepared from these cells using standard phenol/chloroform extraction method, and then cDNA was prepared using SuperScript III reverse transcriptase (Invitrogen) with oligo(dT)20 primers (Invitrogen). One-twentieth volume of cDNA samples were amplified in a primary PCR using Ramp-Taq DNA polymerase (Denville Scientific) with AID118 and AID119 primers^14. Primary PCR condition: initial incubation of 95° C. for 7 min followed by 15 cycles of amplification steps (95° C. for 30 s, 58° C. for 20 sec, and 72° C. for 45 sec.). Primary PCR products were then subjected to quantitative PCR using SYBR Green core reagents and AIDF2/AIDR2 primers^5."}, "3H9 mice [1]": {"system": "3H9 mice", "experiment": "DNA avidity index of single immature/T1 B-cell N-cultures from treated 3H9 mice (ELISA)", "format": "in vivo", "procedure": "Single immature/T1 B cells and MF B cells from unimmunized B6 and Myd88^−/− mice, and control- and chloroquine-treated 3H9 mice were expanded in the presence of NB-21.2D9 feeder cells (N-cultures). Briefly, single immature/T1 B cells and MF B cells were directly sorted into each well of 96-well plates and cultured in the presence of exogenous recombinant IL-4 (2 ng/ml, Peprotech) and CD154-/BAFF-/IL-21-expressing NB-21.2D9 cells in RPMI 1640 (Invitrogen) supplemented with 10% HyClone FBS (Thermo scientific), 2-mercaptoethanol (5.5×10^−5 M), penicillin (100 units/ml), streptomycin (100 μg/ml), HEPES (10 mM), sodiumpyruvate (1 mM), and MEM nonessential amino acid (1×; all Invitrogen). Two thirds of culture media were replaced with fresh media daily from day 2 to day 8. On days 9-10, culture supernatants were harvested for ELISA determinations.\nConcentrations of total IgG in culture supernatants were determined by standard ELISA. Briefly, 96-well ELISA plates (Corning) were coated with anti-mouse Igκ Ab and anti-mouse Igλ Ab (2 μg/ml each; Southern Biotech) in carbonate buffer for overnight. After washing, plates were blocked with PBS containing 0.5% BSA for 1 h. Diluted samples (at 1:100 and 1:1,000 dilutions in PBS containing 0.5% BSA and 0.1% Tween-20) and serially diluted standard anti-DNA mAb (HYB331-01; Abcam) were then applied to the plates and incubated for overnight. After washing, HRP-conjugated anti-mouse IgG (Southern Biotech) was added to the plates and incubated for 2 h. The HRP-activity was visualized with TMB substrate reagents (Biolegend) and OD450-OD620 was measured by spectrophotometer (Bio-Rad).\nAnti-DNA IgG was measured by ELISA^19. […] Bound IgG was detected by HRP-conjugated anti-mouse IgG and TMB substrates as described above. […]\nDNA avidity index, [anti-DNA IgG]/[total IgG], represents proportion of DNA-binding IgG to total IgG in reference to the anti-DNA mAb. To compare DNA avidity indices of individual immature/T1 B cells from control- and chloroquine-treated 3H9 mice, culture supernatant samples that contain total IgG (range: 1-3 μg/ml) were analyzed. […]"}, "2F5 dKI mice [2]": {"system": "2F5 dKI mice", "experiment": "Spleen B-cell numbers and GC responses in 2F5 dKI mice after chloroquine, MPER liposome immunization and anti-CD25 Ab (FIG. 20)", "format": "in vivo"}, "2F5 dKI mice [3]": {"system": "2F5 dKI mice", "settings": "2F5 dKI mice treated with chloroquine for one week"}, "[4]": {"experiment": "Humoral responses after chloroquine treatment (FIG. 17)", "format": "in vivo"}, "3H9 mice [5]": {"system": "3H9 mice", "text": "Specific B-lineage developmental compartments were identified as described^1: CD43^+ B (pre-pro-B and pro-B; B220^lowCD93^+IgM^−IgD^−CD43^+), large pre-B (B220^lowCD93^+IgM^− IgD^−CD43^−FSC^high), small pre-B (B220^lowCD93^+IgM^−IgD^−CD43^−FSC^low), immature/T1 B (B220^lowCD93^+IgM^+IgD^+/−CD21^−CD23^−) and mature B (B220^hiCD93^−) cells in bone marrow, and splenic MF B (B220^hiCD93^−IgM^intIgD^hiCD21^intCD23^hi) cells of naïve mice, and germinal center B (GL-7^+B220^highFas^+IgD^−) cells in spleen of NP-CGG/alum immunized mice. Specific developmental compartments were designated for B6, and then identical gatings were used for all samples. Cells that take up propidium iodide were excluded from our analyses. Labeled cells were analyzed/sorted in a FACS Canto (BD Bioscience) or FACS Vantage with DIVA option (BD Bioscience). Flow cytometric data were analyzed with FlowJo software (Treestar Inc.)."}, "[6]": {"system": "human CD40 expressing HEK blue cells", "experiment": "HEK-Blue CD40L cells SEAP reporter assay of CD40L bioactivity", "format": "cell-based", "settings": "liposome-conjugated vs non-conjugated", "text": "HEK-Blue CD40L cells (Invivogen) were used to measure the bioactivity of CD40L through the secretion of embryonic alkaline phosphatase (SEAP) upon NF-κB activation following CD40 stimulation."}, "[7]": {"settings": "chloroquine-treated vs control 3H9 mice"}}, "note": "Entries after “also recorded” stand apart in the source; their conditions may differ.", "data": [{"molecule": "CCN(CC)CCCC(C)Nc1ccnc2cc(Cl)ccc12", "note": "(stereo not shown) [chloroquine]", "values": [{"measurement": "AID expression in immature/T1 B cells elevated by CpG or CpG+anti-μ stimulation", "setting": "immature/T1 B cells; in the presence of 2.0 μg/ml of chloroquine, 24 h culture", "value": "abrogated"}, {"measurement": "synergistic AID up-regulation", "setting": "immature/T1 B cells; in vitro", "value": "blocked"}, {"measurement": "frequency of immature/T1 B cells with higher DNA avidity", "setting": "3H9 mice [1]; DNA avidity index 0.178 cut-off (average of control 3H9), chloroquine-treated 3H9 mice", "value": "increased"}, {"measurement": "average anti-DNA avidity indices of individual immature/T1 B cells", "setting": "3H9 mice [1]; [7]", "value": "significantly higher; also recorded: more avidly"}, {"measurement": "distribution of anti-DNA avidity indices", "setting": "3H9 mice [1]; [7]", "value": "shifted toward higher avidity cohorts"}, {"measurement": "absolute cell numbers of splenic transitional-1 (T1) and T2", "setting": "2F5 dKI mice [2]; consecutive injections with chloroquine and MPER liposome, 14 days after last chloroquine injection, 12 days after immunization", "value": "increased"}, {"measurement": "tolerizing deletion of 2F5 dKI B cells", "setting": "2F5 dKI mice [2]; injections of chloroquine", "value": "release"}, {"measurement": "GC responses", "setting": "2F5 dKI mice [2]; vs controls (PBS+control IgG), after MPER liposome immunization", "value": "abolished"}, {"measurement": "splenic mature B-cell compartments", "setting": "2F5 dKI mice [3]", "value": "increases"}, {"measurement": "duration of suppression of humoral responses", "setting": "[4]", "value": "< 1", "unit": "week"}, {"measurement": "numbers of large- and small pre-B cells", "setting": "3H9 mice [5]; 3H9 mice, multiple i.p. injections of chloroquine for up to 8 days, bone marrow", "value": "decreased"}, {"measurement": "central B-cell tolerance", "setting": "3H9 mice [5]; mice treated with chloroquine", "value": "relaxed"}]}, {"molecule": "CCCCO", "note": "[n-butanol]", "values": [{"measurement": "AID expression in immature/T1 B cells stimulated with CpG", "setting": "immature/T1 B cells; addition of n-butanol (0.1, 0.3, 1.0%)", "value": "did not significantly change"}, {"measurement": "synergistic effects of CpG and anti-μ co-stimulation on AID expression in immature/T1 B cells", "setting": "immature/T1 B cells; n-butanol at 1.0%", "value": "completely abrogated"}, {"measurement": "synergistic effects of CpG and anti-μ co-stimulation on AID expression in immature/T1 B cells", "setting": "immature/T1 B cells; n-butanol, dose-dependent", "value": "suppressed"}]}, {"molecule": "B1", "values": [{"measurement": "effect of liposome conjugation on CD40 activation", "setting": "[6]", "value": "enhances"}]}]}
